Measured values: US12383502B2, “Cold-water-dispersible chemical delivery system” (PHARMAKO BIOTECHNOLOGIES PTY LIMITED, priority 2017, dated 2025)
Where two headings read alike, the source gives them in different places. Values belong to the compound of their own block, whether it stands above or below them.

Experiments:
[1] = Dispersion of composition in water (visual); assay type: physicochemical; settings: for liquid dispersibility / wettability: solid placed on liquid (FIG. 2)
[2] = PEA pharmacokinetics, single 300 mg dose; assay type: in vivo, human; settings: for Cmax: po, 300 mg
Procedure: A single equivalent dose, randomised, double blinded study was used to evaluate the pharmacokinetics of 2 different PEA formulations administered in single 300 mg doses (standard PEA and Lipisperse PEA from Batch#MT20170615_01 described in Example 7). All trial participants, investigators conducting the trial and the biochemist analysing the samples were blinded to who was on each product.
Subjects were healthy adult male (n=10) and female (n=8; non-pregnant and non-lactating) volunteers between the ages of 18-30 years. All participants were advised to fast from 10:[…] the night prior to the study commencing until the collection of the first blood sample. Breakfast and lunch were provided to the participants at the centre. This is a standard feeding study with nutritionally balanced meals and snacks provided during the 0-6 hour sample collection. Subjects remained on site for the full 6 hours of sample collection. Only participants who provided at least 9 of the 11 samples collected between 0-24 hours had their data analysed.
For PEA pharmacokinetic analysis, blood samples (3mL collected into ethylenediaminetetraacetic acid (EDTA) containing tubes) were drawn prior to supplementation (hour 0) and at 30, 45, 60, 90, 120, 180, 240, 300, 360 minutes and 24 hours post supplementation. Once obtained, the blood collection tube was briefly mixed by inversion, placed on ice and centrifuged within 10 minutes of collection (600×g, 4° C. for 10 minutes) to separate the plasma. Once spun, EDTA plasma was carefully removed and approximately 3×500 μl aliquots made. Aliquots were temporarily stored at −20° C. (<48 hours) before being transported and stored at −80° C.
Plasma samples were removed from storage at −80° C. and allowed to thaw to room temperature. Once thawed, 100 μL of sample was added to a microfuge tube along with 20 μL of an internal standard solution (50 ng/mL of D8-arachidonic acid (D8-AA) in ethanol). Proteins were precipitated by adding 100 μL of acetone. The tubes were capped and vortex mixed for 15 seconds then put on ice for 10 minutes. The resulting solution was spun at 12,000×g for 10 minutes before the supernatant was removed into a new tube. To the supernatant, 800 μL of a methanol/chloroform solution (2:1) was added along with 240 μL of 3M HCl to achieve phase separation. This solution was vortex mixed for 10 seconds followed by gentle mixing on rotator. After 10 minutes of gentle rotation, the tubes were centrifuged at 12,000×g for 10 minutes with the resulting chloroform layer (bottom layer) transferred to a glass culture tube and dried under a stream of nitrogen gas.
Once dry, the samples were reconstituted in 100 μL of ethanol, mixed and the contents transferred to salinized GC-MS glass inserts and dried under nitrogen. Once dry, the samples were derivatized via the addition of 40 μL of pentafluorobenzylbromide (PFBBr, 10% in acetonitrile −4 μL of PFBBr and 36 μL of ACN) and 20 μL di-isopropylethylamine (DIPEA, 10% in acetonitrile−2 μL DIPEA and 18 μL of ACN) and vortex mixed for 5 seconds. Samples were then incubated at room temperature for 30 min before being dried under nitrogen and the insert placed into GC-MS vials. To each vial, 10 μL of anhydrous pyridine and 20 μL of bis-(trimethylsilyl)trifluoroacetamide and trimethylchlorosilane (BSTFA+TMCS, 99:1) was added, the vial capped and vortex mixed for 5 seconds. The samples were incubated for 20 min at 45° C. The samples were allowed to cool before 70 μL of anhydrous hexane was added and the samples place on the auto sampler rack for analysis.
The standard PEA was purchased from Sigma Aldrich (P0359-10MG) and stored at −20° C. as per manufacturer's instructions. The PEA standard was made up to 1 mM solution with ethanol. Working standard solutions were prepared by diluting the 1 mM solution (or 1 μM/mL) 1:10 with ethanol for a 100 nM/mL solution. This solution was further diluted 1:10 with hexane for a concentration of 10 nM/mL. […]

SMILES: CCCCCCCCCCCCCCCC(=O)NCCO [PEA, Palmitoylethanolamide]
liquid dispersibility / wettability [1]: sitting on top of a liquid, without dispersion

Cmax ([2]; both sexes, human, plasma, plasma, single oral 300 mg, n=9 per group, read-out: Cmax PEA): 3010 ± 1240 ng/mL
Cmax ([2]; both sexes, human, plasma, plasma, single oral 300 mg, n=9 per group, read-out: Delta Cmax (peak change in PEA concentration from baseline)): 410 ng/mL
concentration at 24 h ([2]; both sexes, human, plasma, single oral 300 mg, data not shown, read-out: plasma PEA concentration at the 24 hours collection): 2690 ± 1060 ng/mL
concentration at 0 h ([2]; both sexes, human, plasma, prior to supplementation (hour 0), n=9 per group, read-out: Baseline PEA concentration): 2590 ± 770 ng/mL
Peak timing ([2]; plasma PEA, single oral 300 mg): 45 min
SMILES: CCCCCCCCCCCCCCCC(=O)NCCO [Standard PEA, Palmitoylethanolamide]
adverse events ([2]; single 300 mg dose, n=9 per group): No adverse events

SMILES: COc1cc(/C=C/C(=O)CC(=O)/C=C/c2ccc(O)c(OC)c2)ccc1O [curcumin]
liquid dispersibility / wettability [1]: sitting on top of a liquid, without dispersion

dispersion in water after mixing and standing ([1]; added to water, mixed and allowed to stand (FIG. 10, FIG. 16)): does not disperse effectively
SMILES: Oc1ccc(C=Cc2cc(O)cc(O)c2)cc1 [untreated resveratrol, resveratrol]
